Data published in patent publication US20240002438A1, “MELANOCORTIN LIGANDS AND METHODS OF USE THEREOF” (REGENTS OF THE UNIVERSITY OF MINNESOTA, priority 2021, published 2024).
pEC50, pIC50: −log10 of the molar value. Read-outs that look alike come from different tables or passages of the source. Where a SMILES comes first, the peptide text is derived from it. Primed or numbered codes have the meaning given here. [ ]: non-standard residue; d: D form. dBip = N[C@H](Cc1ccc(-c2ccccc2)cc1)C(=O)O; Oic = O=C(O)[C@@H]1C[C@@H]2CCCC[C@@H]2N1; dPhe(4-I) = N[C@H](Cc1ccc(I)cc1)C(=O)O; 2Nal = N[C@@H](Cc1ccc2ccccc2c1)C(=O)O; d2Nal = N[C@H](Cc1ccc2ccccc2c1)C(=O)O; Nle = CCCC[C@H](N)C(=O)O; Pip′ = not defined here

Columns and labels:
[1] = molecular target: T1, mMC1R (Mus musculus, UniProt Q01727); conditions: for mMC1R agonist activity: up to 100 μM
Description: (§1) Following stimulation, streptavidin donor beads (0.5 μg) and biotinylated-cAMP (0.62 μmol) were added to the wells in a green light environment with 10 μL of lysis buffer (5 mM HEPES, 0.3% Tween-20, 0.1% BSA, pH=7.4) and the plates were incubated in the dark at room temperature for an additional 2 h. Plates were read on a Enspire (PerkinElmer) Alpha-plate reader using a pre-normalized assay protocol (set by the manufacturer).

[2] = molecular target: T2, mMC3R (Mus musculus, UniProt P33033); assay: cAMP AlphaScreen agonist assay at mMC3R, HEK293 cells; conditions: up to 100 μM
Description: as §1

[3] = molecular target: T3, mMC4R (Mus musculus, UniProt P56450); assay: cAMP AlphaScreen agonist assay at mMC4R, HEK293 cells; conditions: for mMC4R agonist activity: up to 100 μM
Description: as §1

[4] = molecular target: T4, mMC5R (Mus musculus, UniProt P41149); assay: cAMP AlphaScreen agonist assay at mMC5R, HEK293 cells; conditions: for mMC5R agonist activity: up to 100 μM
Description: as §1

[5] = molecular target: T2, mMC3R; assay: cAMP AlphaScreen antagonist assay at mMC3R, NDP-MSH as agonist, HEK293 cells; conditions: for mMC3R antagonist activity: at the concentrations assayed; for mMC3R antagonist pA2: NDP-MSH as agonist, HEK293 cells stably expressing mMC3R
[6] = molecular target: T3, mMC4R; assay: cAMP AlphaScreen antagonist assay at mMC4R, NDP-MSH as agonist, HEK293 cells; conditions: for mMC4R antagonist pA2: NDP-MSH as agonist, HEK293 cells stably expressing mMC4R
Description: as §1

[7] = molecular target: T5, MC5R (Homo sapiens, UniProt P33032); conditions: Bednarek, Peptides 2007, cited from earlier work
[8] = molecular target: human (h)MC4R (Homo sapiens, UniProt P32245); conditions: Chaki 2003; read-out: binding affinity at hMC4R; cited from earlier work
[9] = molecular target: T6, MC3R (Homo sapiens, UniProt P41968); conditions: Chaki 2003; read-out: binding affinity at hMC3R; cited from earlier work
[10] = molecular target: MC1R (Homo sapiens, UniProt Q01726); conditions: unable to displace at up to this concentration; Chaki 2003; read-out: displacement of radiolabeled NDP-MSH at hMC1R; cited from earlier work
[11] = molecular target: T7, MC4R (Homo sapiens, UniProt P32245); conditions: Nozawa 2007; cited from earlier work
[12] = molecular target: T3, mMC4R; parameters: expressed in transfected cells; host or cells: HEK293; conditions: Doering 2017; cited from earlier work
[13] = molecular target: T2, mMC3R; parameters: expressed in transfected cells; host or cells: HEK293; conditions: Doering 2017; cited from earlier work
[14] = molecular target: T2, mMC3R; parameters: expressed in transfected cells; host or cells: HEK293; conditions: Doering 2017; cited from earlier work; remark: listed apart in the source
[15] = molecular target: T3, mMC4R; parameters: expressed in transfected cells; host or cells: HEK293; conditions: cited from earlier work
[16] = molecular target: T4, mMC5R; parameters: expressed in transfected cells; host or cells: HEK293; conditions: Doering 2017; cited from earlier work
[17] = molecular target: T1, mMC1R; assay: cell-based
Description: as §1

[18] = molecular target: T6, MC3R; conditions: Grieco 2002; cited from earlier work
[19] = molecular target: T7, MC4R; conditions: Grieco 2002; cited from earlier work
[20] = molecular target: T5, MC5R; conditions: Bednarek, Peptides 2007; cited from earlier work
[21] = Solubility in solvents compatible with RP-HPLC

T7 sequence (P32245 whole entry): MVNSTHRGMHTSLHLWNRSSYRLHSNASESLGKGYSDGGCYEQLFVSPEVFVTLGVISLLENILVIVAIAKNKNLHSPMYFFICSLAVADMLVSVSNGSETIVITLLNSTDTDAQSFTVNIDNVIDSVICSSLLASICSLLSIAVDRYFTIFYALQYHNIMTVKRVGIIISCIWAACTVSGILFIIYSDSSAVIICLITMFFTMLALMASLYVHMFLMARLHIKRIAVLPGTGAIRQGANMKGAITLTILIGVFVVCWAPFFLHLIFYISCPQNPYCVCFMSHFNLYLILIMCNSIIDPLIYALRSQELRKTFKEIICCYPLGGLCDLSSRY
T2 sequence (P33033 whole entry): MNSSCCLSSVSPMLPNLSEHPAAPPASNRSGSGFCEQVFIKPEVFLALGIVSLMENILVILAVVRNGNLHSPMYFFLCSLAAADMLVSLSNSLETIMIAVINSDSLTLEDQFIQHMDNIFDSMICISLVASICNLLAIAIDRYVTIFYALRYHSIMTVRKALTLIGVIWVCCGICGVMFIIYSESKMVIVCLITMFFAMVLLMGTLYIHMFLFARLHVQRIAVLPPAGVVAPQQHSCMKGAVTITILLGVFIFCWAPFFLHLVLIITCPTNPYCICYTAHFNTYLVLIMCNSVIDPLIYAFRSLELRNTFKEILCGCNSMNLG
T1 sequence (Q01727 whole entry): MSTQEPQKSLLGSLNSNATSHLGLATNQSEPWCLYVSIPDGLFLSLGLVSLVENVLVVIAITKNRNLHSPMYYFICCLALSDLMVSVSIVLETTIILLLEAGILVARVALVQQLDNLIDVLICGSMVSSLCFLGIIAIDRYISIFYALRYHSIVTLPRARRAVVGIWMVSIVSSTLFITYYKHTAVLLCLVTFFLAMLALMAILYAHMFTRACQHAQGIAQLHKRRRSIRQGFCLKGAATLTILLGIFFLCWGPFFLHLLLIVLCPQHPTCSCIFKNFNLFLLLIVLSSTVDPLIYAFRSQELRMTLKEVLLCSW
T3 sequence (P56450 whole entry): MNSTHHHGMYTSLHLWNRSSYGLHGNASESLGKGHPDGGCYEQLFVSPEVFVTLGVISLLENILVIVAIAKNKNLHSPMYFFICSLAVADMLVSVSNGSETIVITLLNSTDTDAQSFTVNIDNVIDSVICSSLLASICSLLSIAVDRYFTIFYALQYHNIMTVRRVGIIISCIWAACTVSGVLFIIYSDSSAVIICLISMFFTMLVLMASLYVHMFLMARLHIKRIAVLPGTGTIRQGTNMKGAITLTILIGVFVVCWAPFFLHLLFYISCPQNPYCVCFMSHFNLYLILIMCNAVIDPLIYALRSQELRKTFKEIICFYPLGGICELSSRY
T5 sequence (P33032 whole entry, species assumed): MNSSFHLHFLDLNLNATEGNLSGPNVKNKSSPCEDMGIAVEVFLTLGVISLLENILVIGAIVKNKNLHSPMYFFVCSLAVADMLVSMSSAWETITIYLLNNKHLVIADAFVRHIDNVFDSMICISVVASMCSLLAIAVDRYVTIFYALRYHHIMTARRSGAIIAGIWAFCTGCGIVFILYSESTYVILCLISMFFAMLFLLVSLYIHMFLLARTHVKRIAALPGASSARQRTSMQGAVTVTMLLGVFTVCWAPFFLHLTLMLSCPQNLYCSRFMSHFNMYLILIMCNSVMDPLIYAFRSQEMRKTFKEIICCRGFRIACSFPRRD
T4 sequence (P41149 whole entry): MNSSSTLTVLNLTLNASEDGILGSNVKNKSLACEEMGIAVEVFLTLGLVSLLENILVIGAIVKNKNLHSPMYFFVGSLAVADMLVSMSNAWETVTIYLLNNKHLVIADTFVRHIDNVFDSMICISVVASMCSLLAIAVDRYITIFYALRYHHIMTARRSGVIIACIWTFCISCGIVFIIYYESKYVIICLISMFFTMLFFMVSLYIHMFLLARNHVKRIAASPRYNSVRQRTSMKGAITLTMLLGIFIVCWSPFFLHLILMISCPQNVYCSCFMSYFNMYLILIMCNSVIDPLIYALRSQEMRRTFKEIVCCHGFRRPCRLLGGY
T6 sequence (P41968 whole entry): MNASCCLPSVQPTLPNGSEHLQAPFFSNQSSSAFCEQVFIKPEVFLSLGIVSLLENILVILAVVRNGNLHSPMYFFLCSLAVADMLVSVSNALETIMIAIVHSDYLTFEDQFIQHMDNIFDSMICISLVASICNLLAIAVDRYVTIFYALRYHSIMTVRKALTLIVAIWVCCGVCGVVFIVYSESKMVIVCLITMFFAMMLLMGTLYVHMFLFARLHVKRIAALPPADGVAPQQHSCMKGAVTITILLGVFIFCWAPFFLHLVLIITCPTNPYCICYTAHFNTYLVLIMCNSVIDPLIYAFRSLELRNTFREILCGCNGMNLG
Chain of human (h)MC4R (P32245 whole entry): as the sequence (P32245 whole entry) above
Chain of MC1R (Q01726 whole entry): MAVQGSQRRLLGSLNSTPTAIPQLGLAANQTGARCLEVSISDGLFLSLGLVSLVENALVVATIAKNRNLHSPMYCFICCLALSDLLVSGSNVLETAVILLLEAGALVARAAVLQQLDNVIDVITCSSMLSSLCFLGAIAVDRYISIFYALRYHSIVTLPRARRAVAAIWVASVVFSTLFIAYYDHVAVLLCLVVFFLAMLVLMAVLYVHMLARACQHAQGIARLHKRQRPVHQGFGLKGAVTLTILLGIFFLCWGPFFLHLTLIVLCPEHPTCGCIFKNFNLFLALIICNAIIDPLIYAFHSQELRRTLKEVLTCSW

CC(=O)N[C@H](Cc1ccc(I)cc1)C(=O)N[C@H](Cc1ccc2ccccc2c1)C(=O)N[C@H](Cc1ccc(I)cc1)C(=O)N[C@@H](CCCNC(=N)N)C(N)=O [compound 33, Ac-DPhe(pI)-DNal(2′)-DPhe(pI)-Arg-NH2] (Ac-[dPhe(4-I)][d2Nal][dPhe(4-I)]R-NH2)
mMC1R agonist activity [1]: partially stimulate
mMC3R agonist activity [2]: inactive
mMC4R agonist activity [3]: inactive
pEC50 [4]: 6.10 to 7.52
pEC50 ([4]; read-out: mMC5R agonist EC50): 6.89
mMC5R agonist activity [4]: full mMC5R agonists
mMC3R antagonist activity [5]: did not act as antagonists

Ac-DPhe(pI)-DNal(2′)-Trp-DLys-NH2 [compound 28]
mMC4R antagonist pA2 [6]: 6.6
mMC3R antagonist pA2 [5]: 5.7

Ac-Oic-DBip-Pip-Trp-NH2
pEC50 ([7]; read-out: agonist potency at the MC5R): 5.92

Ac-DNal(2′)-Arg-Nal(2′) [MCL0020]
pIC50 [8]: 7.93
pIC50 [9]: 5.95
pIC50 [10]: < 5.00
pIC50 [11]: 7.81

CC(=O)N[C@H](Cc1ccc2ccccc2c1)C(=O)N[C@@H](CCCNC(=N)N)C(=O)N[C@H](Cc1ccc(I)cc1)C(=O)N[C@H](Cc1ccc2ccccc2c1)C(N)=O [compound 20] (Ac-[d2Nal]R[dPhe(4-I)][d2Nal]-NH2)
pEC50 ([1]; read-out: mMC1R agonist EC50): 5.30
mMC1R agonist activity [1]: full agonist activity
mMC4R antagonist pA2, previously reported [12]: 5.9
mMC3R antagonist pA2, previously reported [13]: 5.6
mMC3R partial agonist efficacy, % of the maximal NDP-MSH signal, previously reported [14]: 40%
mMC4R partial agonist efficacy, % of the maximal NDP-MSH signal, previously reported ([15]; Doering 2017): 37%
mMC5R partial agonist efficacy, % of the maximal NDP-MSH signal, previously reported [16]: 43%
mMC4R antagonist pA2 [6]: 6.5
mMC3R antagonist pA2 [5]: 6.1

Ac-His-DPhe-Arg-Trp-NH2 [reference compound]
agonist potency at the mMC4R ([15]; Haskell-Luevano 2001): nanomolar

CC(=O)N[C@H](Cc1ccc2ccccc2c1)C(=O)N[C@@H](CCCNC(=N)N)C(=O)N[C@H](Cc1ccc2ccccc2c1)C(=O)N[C@H](Cc1ccc2ccccc2c1)C(N)=O [compound 14] (Ac-[d2Nal]R[d2Nal][d2Nal]-NH2)
pEC50 [17]: 5.10 to 6.40

Ac-DPhe(pI)-Arg-DPhe(pI)-Arg-NH2 [compound 45]
mMC1R agonist activity [1]: full agonist activity

CC(=O)N[C@H](Cc1ccc2ccccc2c1)C(=O)N[C@@H](CCCNC(=N)N)C(=O)N[C@@H](Cc1ccc2ccccc2c1)C(=O)N[C@H](CCCCN)C(N)=O [compound 22, Ac-DNal(2′)-Arg-Nal(2′)-DLys-NH2] (Ac-[d2Nal]R[2Nal][dK]-NH2)
pEC50 [17]: 5.10 to 6.40
mMC4R antagonist pA2 [6]: 7.8

Ac-DPhe(pI)-Arg-DPhe(pI)-DLys-NH2 [compound 43]
mMC1R agonist activity [1]: full agonist activity

CC(=O)N[C@H](Cc1ccc2ccccc2c1)C(=O)N[C@H](Cc1ccc2ccccc2c1)C(=O)N[C@H](Cc1ccc(I)cc1)C(=O)N[C@@H](CCCNC(=N)N)C(N)=O [compound 9, Ac-DNal(2′)-DNal(2′)-DPhe(pI)-Arg-NH2] (Ac-[d2Nal][d2Nal][dPhe(4-I)]R-NH2)
pEC50 [4]: 6.10 to 7.52
pEC50 ([4]; read-out: mMC5R agonist EC50): 7.52
mMC5R agonist activity [4]: full mMC5R agonists
mMC3R antagonist activity [5]: did not act as antagonists

Ac-DNal(2′)-Arg-DPhe(pI)-DLys-NH2 [compound 19]
mMC1R agonist activity [1]: full agonist activity

CC(=O)N[C@H](Cc1ccc2ccccc2c1)C(=O)N[C@@H](CCCNC(=N)N)C(=O)N[C@H](Cc1ccc2ccccc2c1)C(=O)N[C@@H](CCCNC(=N)N)C(N)=O [compound 15, Ac-DNal(2′)-Arg-DNal(2′)-Arg-NH2] (Ac-[d2Nal]R[d2Nal]R-NH2)
pEC50 [17]: 5.10 to 6.40

Ac-Nle-c[Asp-Pro-DNal(2′)-Arg-Trp-Lys]-NH2 [PG901]
hMC3R antagonist pA2 [18]: 9.0
hMC4R antagonist pA2 [19]: 9.3

Ac-DNal(2′)-Arg-DPhe(pI)-Arg-NH2 [compound 21]
mMC1R agonist activity [1]: full agonist activity

Ac-Phe(pI)-Nal(2′)-Phe(pI)-Arg-NH2 [compound 49]
mMC1R agonist activity [1]: partially stimulate
mMC3R agonist activity [2]: inactive
mMC4R agonist activity [3]: inactive
mMC5R agonist activity [4]: did not possess agonist activity

Ac-[dPhe(4-I)]R[2Nal]R-NH2 [compound 48]
mMC4R partial activation, % of the maximal NDP-MSH signal ([3]; 100 μM): 25%
MC4R antagonist potency compared to endogenous AGRP(86-132) [6]: about equipotent
mMC4R antagonist pA2 [6]: 9.0
mMC3R antagonist pA2 [5]: 7.8

Ac-Ser-Tyr-Ser-Nle-Glu-Oic-DBip-Pip-Trp-Gly-Lys-Pro-Val-NH2 (Ac-SYS[Nle]E[Oic][dBip][Pip′]WGKPV-NH2; reading uncertain; also: printed as Ac-Ser-Tyr-Ser-Nle-Glu-Oic-DBip-Pip-Trp-Gly-Lys-Pro-Val-NH2)
MC5R agonist potency [7]: sub-nanomolar
selectivity for the MC5R by radiolabeled 125I-NDP-MSH displacement [20]: greater than 3200 fold

CC(=O)N[C@H](Cc1ccc2ccccc2c1)C(=O)N[C@H](Cc1ccc2ccccc2c1)C(=O)N[C@H](Cc1ccc2ccccc2c1)C(=O)N[C@H](Cc1ccc2ccccc2c1)C(N)=O [Ac-DNal(2′)-DNal(2′)-DNal(2′)-DNal(2′)-NH2] (Ac-[d2Nal][d2Nal][d2Nal][d2Nal]-NH2)
solubility in solvents compatible with RP-HPLC [21]: insoluble

CC(=O)N[C@H](Cc1ccc2ccccc2c1)C(=O)N[C@@H](CCCNC(=N)N)C(=O)N[C@H](Cc1ccc2ccccc2c1)C(=O)N[C@H](CCCCN)C(N)=O [compound 13, Ac-DNal(2′)-Arg-DNal(2′)-DLys-NH2] (Ac-[d2Nal]R[d2Nal][dK]-NH2)
pEC50 [17]: 5.10 to 6.40

CC(=O)N[C@H](Cc1ccc(I)cc1)C(=O)N[C@H](Cc1ccc2ccccc2c1)C(=O)N[C@@H](Cc1ccc2ccccc2c1)C(=O)N[C@@H](CCCNC(=N)N)C(N)=O [compound 36, Ac-DPhe(pI)-DNal(2′)-Nal(2′)-Arg-NH2] (Ac-[dPhe(4-I)][d2Nal][2Nal]R-NH2)
pEC50 [4]: 6.10 to 7.52
mMC5R agonist activity [4]: full mMC5R agonists
mMC4R antagonist pA2 [6]: 5.8
mMC3R antagonist activity [5]: did not act as antagonists

Ac-DNal(2′)-Arg-DNal(2′)
pIC50 [11]: 7.44
